Legend:
[1] = test system: RCC10 or 786-0 cells with stable overexpression of empty vector or ISCA2; experiment: Cell viability with ISCA2 overexpression; format: cell-based, human; settings: 24h
HIF-1α and HIF-2α = experiment: Western blots for HIF-1α and HIF-2α in ccRCC cells; format: cell-based, human; settings: 786-0 or RCC10 ccRCC cells, 24h, relative to GAPDH
ISCA2 = target: T1, ISCA2 (Homo sapiens, UniProt Q86U28); experiment: Thermal shift assay with recombinant ISCA2 (SYPRO Orange); format: binding
T1 construct: His6 (N); made in house; host or cells: E. coli Rosetta (DE3)
T1 sequence (Q86U28 9-154): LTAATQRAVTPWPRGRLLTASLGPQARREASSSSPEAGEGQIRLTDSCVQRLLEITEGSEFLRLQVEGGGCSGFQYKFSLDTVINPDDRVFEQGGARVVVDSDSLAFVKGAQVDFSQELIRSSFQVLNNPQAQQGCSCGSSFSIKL
Procedure: Thermal shift assays were performed by monitoring the change in protein melting temperature (Tm) in the absence or presence of test compounds, using the hydrophobic protein binding dye, SYPRO Orange (S6650, Thermo Fisher Scientific), measured using the LightCycler 480 (Roche Life Sciences, Indianapolis, IN) according to the manufacturer's protocol. Recombinant ISCA2 was produced by expressing amino acid residues 9-154 of ISCA2 (ISCA2 lacking its mitochondrial localization sequence) in the pET28 vector containing an N-terminal His6 tag in Rosetta (DE3) competent cells (Novagen, Millipore Sigma). ISCA2 production was induced by treating ISCA2 transformed log phase cells with 0.25 mM IPTG for 4 hours at 18° C. ISCA2 was purified using Ni^2+ affinity purification according to standard protocols and eluted in 50 mM Tris-C1 pH7.4, 150 mM NaCl, 5 mM DTT. Thermal shift assays were performed in 384-well plates using 1 μl of a 10× concentration of SYPRO Orange, 8 μl of ISCA2 (4 μg protein) and 1 μl of 1-2 mM stock of test compound per well. The LightCycler was used according to the following setup: LightCycler 480 Instrument Temperature Setup: First target of 20° C., with a Hold of 15 seconds; second target of 95° C., with Acquisition Mode of Continuous, and 10 acquisitions per degree c.; and third target of 20° C., with a Hold of 15 seconds. Tms were determined using Roche Protein Melting Analysis Software. Representative data are shown in FIGS. 6 and 7 using compound 1 and 26HCL at 200 and 100 µM final concentration respectively. […] These findings are supported by studies showing that re-expression of VHL (which increases ISCA2) and overexpression of ISCA2 itself, promotes the resistance of cells to the compounds (shown in FIG. 8).

786-0 cells = experiment: TBARS assay of lipid peroxidation (MDA); format: cell-based, human; settings: 48h treatment
Procedure: Malondialdehyde (MDA) is an end product of lipid peroxidation products and can be used to indicate lipid peroxidation, which is a hallmark of ferroptosis. MDA adducts were quantitated in cells and tumor tissue using the TBARS-TCA Method kit (Cat 700870, Cayman Chemicals, Ann Arbour Michigan) according to the manufacturer's protocol. Briefly, 786-0 cells were seeded at 1.75×10E6 cells in T75 cm^2 flasks, allowed to adhere overnight in a humidified incubator at 37° C. with 5% CO2, then treated with test compounds for 48 h, RSL3 (as positive control for 6h) or DMSO control (volume of DMSO kept constant for all flasks). Cells were detached by trypsinization, pelleted by centrifugation, washed in PBS twice, resuspended in 200 μL PBS, then sonicated for 3 minutes in a sonicating water bath. Representative data showing effects of 26HCL or 62TFA in comparison to RSL3, a classical ferroptosis inducer, is shown in FIG. 5. For MDA quantitation in tumor chunks, 20-50 mg of tumor tissue was homogenized in 200-500 μL of PBS, then sonicated for 5 minutes in a sonicating water bath. The cell or tumor lysates were subjected to the colorimetric detection methods described in manufacturer's protocol. MDA concentration of cells was determined in comparison to a standard curve of MDA stock solution provided by the manufacturer. Data was plotted using Prism GraphPad 9.3.1 Software. […]

[2] = test system: HIF target genes VEGFA and POU5F1; experiment: qPCR of HIF target genes; format: cell-based, human; settings: FIG. 2C
Procedure: For qPCR, cells seeded as described above were harvested for RNA isolation using the RNA Clean and Concentrator kit (Zymo Research, Irvine CA) according to the manufacturer's protocol. cDNA was prepared using the High Capacity […] kit from Thermo Fisher Scientific (Waltham, […]). qRT-PCR was performed using pre-designed Taqman Gene Expression assay primer/probes and master mix (Thermo Fisher Scientific) according to the manufacturer's protocol using the QuantStudio 3 Real-Time PCR System (ThermoFisher). Relative changes in gene expression normalized to the control gene, […] was determined using the ΔΔCt method.

IRP2 and GPX4 = experiment: Western blots for cellular iron-sensing machinery (IRP2, GPX4); format: cell-based, human

## COc1ccc(-c2nnc(Nc3nc4c(OC)nccc4[nH]3)o2)cc1OC [Compound 26HCL, N-(4-Methoxy-1H-imidazo[4,5-c]pyridin-2-yl)-5-(3,4-dimethoxyphenyl)-1,3,4-oxadiazol-2-amine]
[1]
  effect of ISCA2 overexpression on cell viability response to compound: ISCA2 overexpression promotes resistance
HIF-1α and HIF-2α
  effect on HIF-1α and HIF-2α protein (Western blot): decreases HIF-1α and HIF-2α
ISCA2; 100 μM compound, control wells 55.02±0.2
  Tm of ISCA2 in compound-treated wells: 56.3±0.02 °C
ISCA2; compound 1 and 26HCL at 200 and 100 μM final concentration respectively
  change in melting temperature of ISCA2 (in words): significant change in melting temperature of ISCA2
786-0 cells
  lipid peroxidation (MDA-TBA adducts): induce lipid peroxidation to an extent comparable to the ferroptosis inducer RSL3
[2]
  effect on transcription of HIF target genes (VEGFA, POU5F1): decrease transcription of HIF target genes
IRP2 and GPX4; 786-0 or RCC10 ccRCC cells, 24h, relative to GAPDH
  effect on IRP2 protein (Western blot): increases IRP2
IRP2 and GPX4; higher concentrations of compound, FIG. 3D
  effect on IRP2 and GPX4 protein (Western blot): decrease in IRP2 and GPX4

From US20250346588A1, “IMIDAZOPYRIDINE AND OXAZOLOPYRIDINE DERIVATIVES AND ANALOGS THEREOF, METHODS OF PREPARATION THEREOF, METHODS OF HIF-1/2A PATHWAY INHIBITION, AND INDUCTION OF FERROPTOSIS” (KUDA THERAPEUTICS, INC., priority 2022, published 2025)
